Publication PMC10870435, “A novel complement C3 inhibitor CP40-KK protects against experimental pulmonary arterial hypertension via an inflammasome NLRP3 associated pathway” (Journal of Translational Medicine, 2024)
Bridge positions count the residues as written; N and C are the ends. Square brackets hold non-standard residues; d marks the D form. Peptide text beside a SMILES is read from it. Trp(1-Me) = Cn1cc(C[C@H](N)C(=O)O)c2ccccc21; NMeI = CC[C@H](C)[C@H](NC)C(=O)O; Sar = CNCC(=O)O

What was measured:
[1] = test system: MCT-induced rat PAH model; assay: MCT-induced rat PAH model: hemodynamics, RV hypertrophy, vessel morphology; type: in vivo
Description: (§1) In the current study, two animal experiments were conducted successively. 30 rats were randomly divided into two groups (control group and MCT group, n = 15 per group) in the first experiment. MCT group rats received a single intraperitoneally injection of MCT (40 mg/kg) on day 1 to induce PAH while control group rats received an equivoluminal saline injection intraperitoneally. For the second animal experiment, the rats were assigned into four groups (control group, MCT group, CP40-KK group, and MCT + CP40-KK group, n = 15 per group). The control group was given the same volume of saline subcutaneously while the CP40-KK group rats only received CP40-KK (2 mg/kg) by subcutaneous injection from day 15 to day 28 continuously. The rats in the MCT group and MCT + CP40-KK group were received a single intraperitoneally injection of MCT (40 mg/kg) on day 1 and subcutaneously injected with either an equal volume of saline or CP40-KK (2 mg/kg) at day 15 to day 28 continuously. The dose selection of MCT and CP40-KK in our study was established based on previous studies.
Four weeks after the MCT injection, the experimental rats were weighed and anesthetized by intraperitoneal injecting pentobarbital sodium (40 mg/kg). After being anesthetized, rats were fixed in the supine position. A 3F polyethylene catheter filling with heparin was introduced into the right ventricle (RV) through the right jugular vein and the right atrium. Right ventricle systolic pressure (RVSP) was assessed by a pressure transducer and PowerLab system (AD Instruments, Australia). Pressure recordings were measured over a 2 min period and analyzed with Powerlab Pro Software (AD Instruments, Australia). After the hemodynamic study, the rats were euthanized by an overdose of anesthesia, and their lungs and hearts were dissected for further evaluation. The dry weights of the RV and left ventricle (LV) + septum were measured to calculate the RV/(LV + S) ratio and the RV / body weight (RV/BW). The left lung was fixed in 4% paraformaldehyde, and the right lung was snap-frozen in liquid nitrogen and stored at − 80 °C for further analysis.
Fixed lung samples were further fixed in 4% buffered paraformaldehyde for 24 h, embedded in paraffin, and processed for sectioning at 5 μm thick. Hematoxylin and eosin (H&E) staining were performed on paraffin-fixed lung tissue slides. The percent medial wall thickness (WT%) and percent medial wall area (WA%) were used to assess the extent of pulmonary vascular remodeling. WT% = (external diameter − internal diameter)/(external diameter) × 100%; WA% = (external area − internal area)/external area × 100%. All data were obtained and analyzed in a blinded manner.

rat C3 = assay: ELISA, direct binding of plasma C3 to coated peptide; settings: peptide coated on ELISA plate, rat plasma dilutions, anti-C3 antibody, OD 450 nm
Description: CP40-KK and its control peptide were dissolved in coating buffer at different concentration and then added to wells of ELISA plate as designed. The coated plate was incubated at 4 °C overnight. Then the plate was incubated with plasma with the indicated dilution at 37 °C for 2 h. Next, the plate was incubated with the C3 antibody (1:2000, MP biomedicals, Irvine, CA, USA) at 37 °C for 2 h. Then the plate was washed for 3 times and incubated with corresponding HRP conjugated secondary antibodies (1:2000, Abcam, Cambridge, UK) at 37° for 1 h. Finally, TMB substrate was added to each well for indicated time at 37 °C and then the stop solution was added to stop the TMB reaction. OD values were measured at 450 nm using a microplate reader (Bio-tek, Vermont, USA). The coating buffer, wash buffer, TMB substrate, and stop solution were all bought from Boster Biological Technology (Wuhan, China).
CP40-KK and its control peptide were dissolved in coating buffer at different concentrations and then added to wells of ELISA plate as designed. The coated plate was incubated at 4°C overnight. After removing the coating buffer from the wells, the plate was washed using wash buffer 3 times. Then the plate was incubated with plasma with the indicated dilution at 37°C for 2h. […] OD values were measured at 450nm using a microplate reader (Bio-tek, Vermont, USA). […]

NLRP3 inflammasome = assay: Lung homogenate western blot of NF-κB p65 / NLRP3 inflammasome pathway in PAH rats; type: in vivo, rat; settings: lung homogenates, MCT + CP40-KK vs MCT, n = 6 per group
Description: as §1
Proteins were collected from the fresh frozen-rat lung tissues using RIPA lysis buffer. Protein concentration was quantified using a BCA reagent. Equal amounts of protein were electrophoretically separated on 10% SDS polyacrylamide gel, transferred to PVDF membranes, and probed with desired primary antibodies overnight at 4 °C. Membranes were then washed with TBST and incubated with anti-mouse IgG (1:5000) or anti-rabbit IgG (1:5000) horseradish peroxidase conjugated antibodies as indicated. […] To compare and quantify levels of proteins, the density of each band was measured using Image J software. Equal loading for total cell or tissue lysates was determined by β-Actin western blot.
Proteins were collected from the fresh frozen-rat lung tissues using RIPA lysis buffer. Protein concentration was quantified using a BCA reagent. […] To compare and quantify levels of proteins, the density of each band was measured using Image J software. Equal loading for total cell or tissue lysates was determined by β-Actin western blot^3,4.

[2] = MCT 40 mg/kg i.p. day 1, 2 mg/kg/day s.c. day 15-28, vs MCT group, n = 6 per group

## CC[C@H](C)[C@H](NC(=O)[C@H](N)Cc1ccc(O)cc1)C(=O)N[C@H]1CSSC[C@@H](C(=O)N(C)[C@H](C(=O)N[C@@H](CCCCN)C(=O)N[C@@H](CCCCN)C(N)=O)[C@@H](C)CC)NC(=O)[C@H](CCCNC(=N)N)NC(=O)[C@H](Cc2c[nH]cn2)NC(=O)CN(C)C(=O)[C@H](Cc2c[nH]c3ccccc23)NC(=O)[C@H](CC(=O)O)NC(=O)[C@H](CCC(N)=O)NC(=O)[C@H](Cc2cn(C)c3ccccc23)NC(=O)[C@H](C(C)C)NC1=O [CP40-KK] (H-[dY]ICV[Trp(1-Me)]QDW[Sar]HRC[NMeI]KK-NH2; disulfide 3-12 (inferred))
[1]; [2]
  RV / (LV + S) ratio: significantly ameliorate
  RV / BW ratio: significantly ameliorate
  RVSP: significantly ameliorate
  pulmonary wall thickness index WA%: significantly ameliorate
  pulmonary wall thickness index WT%: significantly ameliorate
[1]; rats without MCT, 2 mg/kg s.c. day 15-28
  PAH-related indices, CP40-KK only group vs saline only group: no significant effect
Rat C3
  direct binding of rat C3 and CP40-KK (OD450): specific binding
NLRP3 inflammasome
  NF-κB subunit p65 phosphorylation: significantly block
  NLRP3 inflammasome activation: significantly block
  production of proinflammatory cytokines IL-1β and IL-18: reduced
